Here are results for 29 compounds from ChEMBL document CHEMBL1800003, “In vivo and in vitro SAR of tetracyclic MAPKAP-K2 (MK2) inhibitors. Part I” (Bioorg Med Chem Lett, 2010).

Data set [1] concerns the target T1, MAP kinase-activated protein kinase 2 (Homo sapiens, UniProt P49137). Put plainly: Inhibition of human MK2 using hsp27 peptide biotinyl-AYSRALSRQLSSGVSEIRCOOH as substrate after 45 mins by FRET assay.
In data set [2] the test system is PBMC. Put plainly: Antiinflammatory activity against LPS-induced TNFalpha release in human PBMC preincubated for 30 mins measured after 3 hrs of LPS stimulation. It counts as functional, cell-based.
In data set [3] the target is T1, MAP kinase-activated protein kinase 2. Put plainly: Inhibition of MK2 in human THP-1 cells assessed as inhibition of anisomycin stimulated ser78-hsp27 phosphorylation after 10 mins by FACS analysis. In kind it is cell-based.
Data set [4] addresses Mitogen-activated protein kinase 9 (Homo sapiens, UniProt P45984). Put plainly: Inhibition of JNK2.
For data set [5], the system named is Mus musculus. In words: Antiinflammatory activity in OFI mouse assessed as inhibition of LPS-induced TNFalpha release at 100 mg/kg, po dosed 1 hr before LPS challenge and measured after 1 hr post LPS challenge by ELISA. In kind it is functional.
The nature of data set [6]: Drug level in LPS-stimulated OFI mouse plasma at 100 mg/kg, po after 2 hrs by LC-MS/MS analysis. Set-up: dose 100 mg/kg, route oral. It counts as ADME, organism-based.

Mitogen-activated protein kinase 9, sequence (P45984 whole entry): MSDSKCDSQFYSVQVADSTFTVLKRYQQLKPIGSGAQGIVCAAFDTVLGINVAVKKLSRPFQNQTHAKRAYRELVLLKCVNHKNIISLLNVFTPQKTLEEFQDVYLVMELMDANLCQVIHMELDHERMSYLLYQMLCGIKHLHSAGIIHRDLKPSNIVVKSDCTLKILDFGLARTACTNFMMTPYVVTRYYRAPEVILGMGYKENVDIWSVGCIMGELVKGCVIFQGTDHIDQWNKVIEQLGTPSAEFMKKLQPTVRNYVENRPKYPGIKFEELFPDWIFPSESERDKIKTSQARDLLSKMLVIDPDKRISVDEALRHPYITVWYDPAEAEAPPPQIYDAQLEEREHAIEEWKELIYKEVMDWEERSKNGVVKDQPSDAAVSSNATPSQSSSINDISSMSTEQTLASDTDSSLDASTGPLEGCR
T1 sequence (P49137 whole entry): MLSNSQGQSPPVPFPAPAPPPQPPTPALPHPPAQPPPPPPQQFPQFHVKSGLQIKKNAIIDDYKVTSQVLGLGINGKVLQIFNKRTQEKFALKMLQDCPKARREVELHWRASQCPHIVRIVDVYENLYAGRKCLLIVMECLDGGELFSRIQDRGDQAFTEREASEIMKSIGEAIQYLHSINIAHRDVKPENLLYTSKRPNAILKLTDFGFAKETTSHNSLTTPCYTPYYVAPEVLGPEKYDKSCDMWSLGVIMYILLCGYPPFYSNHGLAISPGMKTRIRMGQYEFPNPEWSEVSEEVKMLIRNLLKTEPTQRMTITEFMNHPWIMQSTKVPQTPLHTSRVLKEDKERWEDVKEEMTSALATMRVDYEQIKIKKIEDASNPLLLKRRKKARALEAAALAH

For `COCCOc1cncc(-c2cc3c(ccc4c5c([nH]c43)CCNC5=O)cn2)c1`, the IC50 in data set [1] was 12 nM; in data set [2], 260 nM; in data set [3] it was 700 nM; in data set [4], 649 nM.
As for `O=C1NCCCc2[nH]c3c(ccc4cnc(-c5ccccc5OCCN5CCOCC5)cc43)c21`, the half-inhibitory concentration (IC50) is 167 nM in data set [1] and > 3000 nM in data set [2].
Regarding `O=C1NCCCc2[nH]c3c(ccc4cnc(-c5cncc(OCCN6CCOCC6)c5)cc43)c21`, the half-inhibitory concentration (IC50) is 80 nM in data set [1], 8600 nM in data set [2], > 30000 nM in data set [3] and 3170 nM in data set [4].
The like results for `COCCOc1cncc(-c2cc3c(ccc4c5c([nH]c43)CCCNC5=O)cn2)c1` were, in that order, 96 nM, 8380 nM, 8300 nM and 2700 nM.
For `COc1ccc(-c2cc3c(ccc4c5c([nH]c43)CCCNC5=O)cn2)cc1`, the concentration for half-maximal inhibition (IC50) in data set [1] was 72 nM; in data set [2], 580 nM.
Taken in the same sequence, the figures for `NCc1[nH]c2c(ccc3cnc(/C=C/c4ccccc4)cc32)c1C(=O)O` were 14 nM and 735 nM.
With `CNCc1[nH]c2c(ccc3cnc(/C=C/c4ccccc4)cc32)c1C(=O)O`, the IC50 in data set [1] was 60 nM; in data set [2] it was 1240 nM.
The like results for `O=C1NOCc2[nH]c3c(ccc4cnc(/C=C/c5ccccc5)cc43)c21` were, in that order, 25 nM and 46 nM.
For `COc1ccc(-c2cc3c(ccc4c5c([nH]c43)CN(C)NC5=O)cn2)cc1`, the concentration for half-maximal inhibition (IC50) turned out to be 23 nM in data set [1], 2360 nM in data set [2], 875 nM in data set [3] and 547 nM in data set [4].
For the compound `O=C1NCc2[nH]c3c(ccc4cnc(/C=C/c5ccccc5)cc43)c21`, the IC50 in data set [1] was 10 nM; in data set [2] it was 14 nM; in data set [4], 2 nM.
Consider `O=C1NCc2[nH]c3c(ccc4cnc(/C=C/c5ccc(CN6CCOCC6)cc5)cc43)c21`, for which the IC50 in data set [1] turned out to be 8 nM; in data set [2] it was 5 nM; in data set [4] it was 22 nM.
`O=C1NCc2[nH]c3c(ccc4cnc(/C=C/c5cccc(CCN6CCOCC6)c5)cc43)c21`: the values for the concentration for half-maximal inhibition (IC50) in data set [1], in data set [2] and in data set [4] were 10 nM, 14 nM and 34 nM, respectively.
For `O=C1NCc2[nH]c3c(ccc4cnc(Nc5cccc(F)c5)cc43)c21`, the concentration for half-maximal inhibition (IC50) was 73 nM in data set [1], 15 nM in data set [2] and 1 nM in data set [4].
Regarding `COc1ccc(-c2cc3c(ccc4c5c([nH]c43)CNC5=O)cn2)cc1`, the IC50 in data set [1] came out at 27 nM; in data set [2], 198 nM.
With `O=C1NCc2[nH]c3c(ccc4cnc(-c5ccccc5F)cc43)c21`, the half-maximal inhibitory concentration (IC50) in data set [1] turned out to be 85 nM; in data set [2] it was 912 nM; in data set [3], 5080 nM; in data set [4], 30 nM.
`O=C1NCc2[nH]c3c(ccc4cnc(-c5ccccc5C(F)(F)F)cc43)c21`: in data set [1], the midpoint of inhibition, the IC50, lay at 900 nM.
In the case of `O=C1NCc2[nH]c3c(ccc4cnc(-c5cccc(OCCN6CCOCC6)c5)cc43)c21`, the concentration for half-maximal inhibition (IC50) in data set [1] turned out to be 32 nM; in data set [2] it was 280 nM; in data set [3] it was 1280 nM; in data set [4], 11 nM.
Take `O=C1NCc2[nH]c3c(ccc4cnc(-c5cncc(OCCN6CCOCC6)c5)cc43)c21`: the half-maximal inhibitory concentration (IC50) is 5 nM in data set [1], 556 nM in data set [2], 9330 nM in data set [3] and 75 nM in data set [4].
Take `COCCOc1cncc(-c2cc3c(ccc4c5c([nH]c43)CNC5=O)cn2)c1`: the IC50 was determined as 5 nM in data set [1], 416 nM in data set [2], 1680 nM in data set [3] and 38 nM in data set [4].
Take `CN1Cc2[nH]c3c(ccc4cnc(/C=C/c5ccccc5)cc43)c2C1=O`: in data set [1], the half-maximal inhibitory concentration (IC50) was determined as 1190 nM.
For the compound `O=C1NCCc2[nH]c3c(ccc4cnc(/C=C/c5ccc(CN6CCOCC6)cc5)cc43)c21`, the IC50 in data set [1] was 1 nM; in data set [2] it was 9 nM; in data set [4] it was 198 nM.
Taken in the same sequence, the figures for `O=C1NCCc2[nH]c3c(ccc4cnc(/C=C/c5cccc(CCN6CCOCC6)c5)cc43)c21` were 5 nM, 32 nM and 76 nM.
In the case of `COc1ccc(-c2cc3c(ccc4c5c([nH]c43)CCNC5=O)cn2)cc1F`, the IC50 in data set [1] was determined as 15 nM; in data set [2] it was 97 nM; in data set [3] it was 500 nM; in data set [4] it was 1420 nM.
The like results for `O=C1NCCc2[nH]c3c(ccc4cnc(-c5cccc(OCCN6CCOCC6)c5)cc43)c21` were, in that order, 16 nM, 294 nM, 1300 nM and 269 nM.
Taken in the same sequence, the figures for `O=C1NCCc2[nH]c3c(ccc4cnc(-c5cncc(OCCN6CCOCC6)c5)cc43)c21` were 10 nM, 283 nM, 2500 nM and 418 nM.
Take `COc1ccc(-c2cc3c(ccc4c5c([nH]c43)CCC5=O)cn2)cc1F`: the inhibition in vivo at 100 mg/kg in data set [5] was determined as 73%. Further, the concentration at 2 h in data set [6] was 13 µM. In addition, the IC50 worked out at 160 nM in data set [1], 1400 nM in data set [2], 5800 nM in data set [3] and 2200 nM in data set [4].
For `O=C1NCCCc2[nH]c3c(ccc4cnc(/C=C/c5ccccc5)cc43)c21`, the concentration for half-maximal inhibition (IC50) in data set [1] came to 116 nM; in data set [2] it was 202 nM; in data set [4] it was 85 nM.
Taken in the same sequence, the figures for `O=C1NCCCc2[nH]c3c(ccc4cnc(/C=C/c5ccc(CN6CCOCC6)cc5)cc43)c21` were 253 nM, 140 nM and 980 nM.
Taken in the same sequence, the figures for `O=C1NCCCc2[nH]c3c(ccc4cnc(/C=C/c5cccc(CCN6CCOCC6)c5)cc43)c21` were 172 nM, > 1000 nM and 700 nM.
